Source: ChEMBL document CHEMBL4316586, “A comprehensive review of salinomycin derivatives as potent anticancer and anti-CSCs agents” (Eur J Med Chem, 2019)
Each block holds one molecule with its values, some of them ahead of it.

Columns and labels:
[1] = tested on: JIMT-1; assay: Antiproliferative activity against human JIMT1 cells by MTT assay; assay type: functional, cell-based
[2] = tested on: MCF7; assay: Antiproliferative activity against human MCF7 cells by MTT assay; assay type: functional, cell-based
[3] = tested on: MDA-MB-231; assay: Antiproliferative activity against human MDA-MB-231 cells by MTT assay; assay type: functional, cell-based
[4] = tested on: HT-29; assay: Antiproliferative activity against human HT-29 cells by MTT assay; assay type: functional, cell-based
[5] = tested on: HGC-27; assay: Antiproliferative activity against human HGC27 cells by MTT assay; assay type: functional, cell-based
[6] = tested on: MCF7; assay: Antiproliferative activity against human MCF7 cells; assay type: functional, cell-based
[7] = tested on: JIMT-1; assay: Antiproliferative activity against human JIMT1 cells; assay type: functional, cell-based
[8] = tested on: Caco-2; assay: Antiproliferative activity against human Caco2 cells by MTT assay; assay type: functional, cell-based
[9] = tested on: HeLa; assay: Antiproliferative activity against human HeLa cells by MTT assay; assay type: functional, cell-based
[10] = tested on: U-87 MG; assay: Antiproliferative activity against human U87 cells by MTT assay; assay type: functional, cell-based, U-87MG ATCC
[11] = tested on: HT-29; assay: Antiproliferative activity against human HT-29 cells after 48 hrs by MTT assay; assay type: functional, cell-based; conditions: HT-29, 48 h
[12] = tested on: HGC-27; assay: Antiproliferative activity against human HGC27 cells after 48 hrs by MTT assay; assay type: functional, cell-based; conditions: HGC-27, 48 h
[13] = tested on: MDA-MB-231; assay: Antiproliferative activity against human MDA-MB-231 cells after 48 hrs by MTT assay; assay type: functional, cell-based; conditions: MDA-MB-231, 48 h

Structure (SMILES): C=CC(=O)O[C@@H]1C=C[C@]2(O[C@H]([C@@H](CC)C(=O)[C@@H](C)[C@@H](O)[C@H](C)[C@@H]3O[C@@H]([C@@H](CC)C(=O)O)CC[C@@H]3C)[C@@H](C)C[C@H]2C)O[C@@]12CC[C@@](C)([C@H]1CC[C@](O)(CC)[C@H](C)O1)O2
IC50 [1]: 390 nM
IC50 [2]: 610 nM

Structure (SMILES): CC[C@@H](C(=O)[C@@H](C)[C@@H](O)[C@H](C)[C@@H]1O[C@@H]([C@@H](CC)C(=O)O)CC[C@@H]1C)[C@H]1O[C@]2(CCC(=O)[C@]3(CC[C@@](C)([C@H]4CC[C@](O)(CC)[C@H](C)O4)O3)O2)[C@H](C)C[C@@H]1C
IC50 [6]: 3110 nM
IC50 [7]: 2680 nM

Structure (SMILES): CC[C@@H](C(=O)[C@@H](C)[C@@H](O)[C@H](C)[C@@H]1O[C@@H]([C@@H](CC)C(=O)O)CC[C@@H]1C)[C@H]1O[C@]2(C=C[C@@H](OC(=O)c3cnco3)[C@]3(CC[C@@](C)([C@H]4CC[C@](O)(CC)[C@H](C)O4)O3)O2)[C@H](C)C[C@@H]1C
IC50 [1]: 240 nM
IC50 [2]: 230 nM

Structure (SMILES): CCNC(=O)O[C@@H]1C=C[C@]2(O[C@H]([C@@H](CC)C(=O)[C@@H](C)[C@@H](O)[C@H](C)[C@@H]3O[C@@H]([C@@H](CC)C(=O)O)CC[C@@H]3C)[C@@H](C)C[C@H]2C)O[C@@]12CC[C@@](C)([C@H]1CC[C@](O)(CC)[C@H](C)O1)O2
IC50 [1]: 260 nM
IC50 [2]: 160 nM

Structure (SMILES): CC[C@@H](C(=O)[C@@H](C)[C@@H](O)[C@H](C)[C@@H]1O[C@@H]([C@@H](CC)C(=O)O)CC[C@@H]1C)[C@H]1O[C@]2(C=C[C@@H](OC(=O)NC(C)(C)C)[C@]3(CC[C@@](C)([C@H]4CC[C@](O)(CC)[C@H](C)O4)O3)O2)[C@H](C)C[C@@H]1C
IC50 [1]: 380 nM
IC50 [2]: 420 nM

Structure (SMILES): CC[C@@H](C(=O)[C@@H](C)[C@@H](O)[C@H](C)[C@@H]1O[C@@H]([C@@H](CC)C(=O)O)CC[C@@H]1C)[C@H]1O[C@]2(C=C[C@@H](OC(C)=O)[C@]3(CC[C@@](C)([C@H]4CC[C@](O)(CC)[C@H](C)O4)O3)O2)[C@H](C)C[C@@H]1C
IC50 [1]: 110 nM
IC50 [2]: 110 nM

Structure (SMILES): CC[C@@H](C(=O)[C@@H](C)[C@@H](O)[C@H](C)[C@@H]1O[C@@H]([C@@H](CC)C(=O)O)CC[C@@H]1C)[C@H]1O[C@]2(C=C[C@H](OC(C)=O)[C@]3(CC[C@@](C)([C@H]4CC[C@](O)(CC)[C@H](C)O4)O3)O2)[C@H](C)C[C@@H]1C
IC50 [3]: 1960 nM
IC50 [4]: 800 nM
IC50 [5]: 940 nM

Structure (SMILES): CC[C@@H](C(=O)[C@@H](C)[C@@H](O)[C@H](C)[C@@H]1O[C@@H]([C@@H](CC)C(=O)O)CC[C@@H]1C)[C@H]1O[C@]2(C=C[C@@H](OC(=O)C(C)C)[C@]3(CC[C@@](C)([C@H]4CC[C@](O)(CC)[C@H](C)O4)O3)O2)[C@H](C)C[C@@H]1C
IC50 [1]: 150 nM
IC50 [2]: 190 nM

Structure (SMILES): CC[C@@H](C(=O)[C@@H](C)[C@@H](O)[C@H](C)[C@@H]1O[C@@H]([C@@H](CC)C(=O)O)CC[C@@H]1C)[C@H]1O[C@]2(C=C[C@H](OC(=O)CC(C)C)[C@]3(CC[C@@](C)([C@H]4CC[C@](O)(CC)[C@H](C)O4)O3)O2)[C@H](C)C[C@@H]1C
IC50 [3]: 2780 nM
IC50 [4]: 890 nM
IC50 [5]: 860 nM

Structure (SMILES): CCOC(=O)O[C@@H]1C=C[C@]2(O[C@H]([C@@H](CC)C(=O)[C@@H](C)[C@@H](O)[C@H](C)[C@@H]3O[C@@H]([C@@H](CC)C(=O)O)CC[C@@H]3C)[C@@H](C)C[C@H]2C)O[C@@]12CC[C@@](C)([C@H]1CC[C@](O)(CC)[C@H](C)O1)O2
IC50 [1]: 90 nM
IC50 [2]: 130 nM

Structure (SMILES): CC[C@@H](C(=O)[C@@H](C)[C@@H](O)[C@H](C)[C@@H]1O[C@@H]([C@@H](CC)C(=O)O)CC[C@@H]1C)[C@H]1O[C@]2(C=C[C@@H](OC(=O)C(C)(C)C)[C@]3(CC[C@@](C)([C@H]4CC[C@](O)(CC)[C@H](C)O4)O3)O2)[C@H](C)C[C@@H]1C
IC50 [1]: 230 nM
IC50 [2]: 170 nM

Structure (SMILES): CC[C@@H](C(=O)[C@@H](C)[C@@H](O)[C@H](C)[C@@H]1O[C@@H]([C@@H](CC)C(=O)O)CC[C@@H]1C)[C@H]1O[C@@]2(C=C[C@@H](O)[C@]3(CC[C@@](C)([C@H]4CC[C@](O)(CC)[C@H](C)O4)O3)O2)[C@H](C)C[C@@H]1C
IC50 [11]: > 10000 nM
IC50 [12]: > 10000 nM
IC50 [13]: > 10000 nM

Structure (SMILES): CC[C@@H](C(=O)[C@@H](C)[C@@H](O)[C@H](C)[C@@H]1O[C@@H]([C@@H](CC)C(=O)O)CC[C@@H]1C)[C@H]1O[C@]2(C=C[C@@H](OC(=O)C3CCCCC3)[C@]3(CC[C@@](C)([C@H]4CC[C@](O)(CC)[C@H](C)O4)O3)O2)[C@H](C)C[C@@H]1C
IC50 [1]: 300 nM
IC50 [2]: 240 nM

Structure (SMILES): CCC(=O)O[C@H]1C=C[C@]2(O[C@H]([C@@H](CC)C(=O)[C@@H](C)[C@@H](O)[C@H](C)[C@@H]3O[C@@H]([C@@H](CC)C(=O)O)CC[C@@H]3C)[C@@H](C)C[C@H]2C)O[C@@]12CC[C@@](C)([C@H]1CC[C@](O)(CC)[C@H](C)O1)O2
IC50 [3]: 1890 nM
IC50 [4]: 840 nM
IC50 [5]: 890 nM

Structure (SMILES): CC[C@@H](C(=O)[C@@H](C)[C@@H](O)[C@H](C)[C@@H]1O[C@@H]([C@@H](CC)C(=O)O)CC[C@@H]1C)[C@H]1O[C@@]2(C=C[C@@H](O)[C@@]3(CC[C@@](C)([C@H]4CC[C@](O)(CC)[C@H](C)O4)O3)O2)[C@H](C)C[C@@H]1C
IC50 [11]: 750 nM
IC50 [12]: 620 nM
IC50 [13]: 5700 nM

Continued, in another order:

IC50 [3]: 790 nM
IC50 [4]: 180 nM
Structure (SMILES): CC[C@@H](C(=O)[C@@H](C)[C@@H](O)[C@H](C)[C@@H]1O[C@@H]([C@@H](CC)C(=O)O)CC[C@@H]1C)[C@H]1O[C@]2(C=C[C@H](OC(=O)c3ccccc3)[C@]3(CC[C@@](C)([C@H]4CC[C@](O)(CC)[C@H](C)O4)O3)O2)[C@H](C)C[C@@H]1C
IC50 [5]: 240 nM

IC50 [8]: 3310 nM
IC50 [9]: 610 nM
IC50 [10]: 15700 nM
Structure (SMILES): CC[C@@H](C(=O)[C@@H](C)[C@@H](O)[C@H](C)[C@@H]1O[C@@H]([C@@H](CC)C(=O)O)CC[C@@H]1C)[C@H]1O[C@]2(C=C[C@H](n3cc(-c4ccccn4)nn3)[C@]3(CC[C@@](C)([C@H]4CC[C@](O)(CC)[C@H](C)O4)O3)O2)[C@H](C)C[C@@H]1C

IC50 [11]: 2800 nM
IC50 [13]: 6560 nM
Structure (SMILES): CC[C@@H](C(=O)[C@@H](C)[C@@H](O)[C@H](C)[C@@H]1O[C@@H]([C@@H](CC)C(=O)O)CC[C@@H]1C)[C@H]1O[C@@]2(C=C[C@@H](OCc3ccccc3)[C@@]3(CC[C@@](C)([C@H]4CC[C@](O)(CC)[C@H](C)O4)O3)O2)[C@H](C)C[C@@H]1C
IC50 [12]: 4140 nM

IC50 [3]: 790 nM
IC50 [4]: 160 nM
Structure (SMILES): CC[C@@H](C(=O)[C@@H](C)[C@@H](O)[C@H](C)[C@@H]1O[C@@H]([C@@H](CC)C(=O)O)CC[C@@H]1C)[C@H]1O[C@]2(C=C[C@H](OC(=O)c3ccc(F)cc3)[C@]3(CC[C@@](C)([C@H]4CC[C@](O)(CC)[C@H](C)O4)O3)O2)[C@H](C)C[C@@H]1C
IC50 [5]: 280 nM

IC50 [2]: 240 nM
Structure (SMILES): CC[C@@H](C(=O)[C@@H](C)[C@@H](O)[C@H](C)[C@@H]1O[C@@H]([C@@H](CC)C(=O)O)CC[C@@H]1C)[C@H]1O[C@]2(C=C[C@@H](OC(=O)Oc3ccccc3)[C@]3(CC[C@@](C)([C@H]4CC[C@](O)(CC)[C@H](C)O4)O3)O2)[C@H](C)C[C@@H]1C
IC50 [1]: 200 nM

IC50 [2]: 200 nM
Structure (SMILES): CC[C@@H](C(=O)[C@@H](C)[C@@H](O)[C@H](C)[C@@H]1O[C@@H]([C@@H](CC)C(=O)O)CC[C@@H]1C)[C@H]1O[C@]2(C=C[C@@H](OC(=O)c3ccccc3)[C@]3(CC[C@@](C)([C@H]4CC[C@](O)(CC)[C@H](C)O4)O3)O2)[C@H](C)C[C@@H]1C
IC50 [1]: 360 nM

IC50 [8]: 1820 nM
IC50 [9]: 2010 nM
IC50 [10]: 18900 nM
Structure (SMILES): CC[C@@H](C(=O)[C@@H](C)[C@@H](O)[C@H](C)[C@@H]1O[C@@H]([C@@H](CC)C(=O)O)CC[C@@H]1C)[C@H]1O[C@]2(C=C[C@H](n3cc(-c4ccc(C(C)(C)C)cc4)nn3)[C@]3(CC[C@@](C)([C@H]4CC[C@](O)(CC)[C@H](C)O4)O3)O2)[C@H](C)C[C@@H]1C

IC50 [2]: 130 nM
Structure (SMILES): CC[C@@H](C(=O)[C@@H](C)[C@@H](O)[C@H](C)[C@@H]1O[C@@H]([C@@H](CC)C(=O)O)CC[C@@H]1C)[C@H]1O[C@]2(C=C[C@@H](OC(=O)c3ccco3)[C@]3(CC[C@@](C)([C@H]4CC[C@](O)(CC)[C@H](C)O4)O3)O2)[C@H](C)C[C@@H]1C
IC50 [1]: 160 nM

IC50 [8]: 1290 nM
IC50 [9]: 330 nM
IC50 [10]: 50000 nM
Structure (SMILES): CC[C@@H](C(=O)[C@@H](C)[C@@H](O)[C@H](C)[C@@H]1O[C@@H]([C@@H](CC)C(=O)O)CC[C@@H]1C)[C@H]1O[C@]2(C=C[C@H](n3cc(-c4ccc(-c5ccccc5)cc4)nn3)[C@]3(CC[C@@](C)([C@H]4CC[C@](O)(CC)[C@H](C)O4)O3)O2)[C@H](C)C[C@@H]1C

IC50 [11]: > 10000 nM
IC50 [13]: > 10000 nM
Structure (SMILES): CC[C@@H](C(=O)[C@@H](C)[C@@H](O)[C@H](C)[C@@H]1O[C@@H]([C@@H](CC)C(=O)O)CC[C@@H]1C)[C@H]1O[C@@]2(C=C[C@@H](OCc3ccccc3)[C@]3(CC[C@@](C)([C@H]4CC[C@](O)(CC)[C@H](C)O4)O3)O2)[C@H](C)C[C@@H]1C
IC50 [12]: > 10000 nM

IC50 [8]: 440 nM
IC50 [9]: 290 nM
IC50 [10]: 16600 nM
Structure (SMILES): CC[C@@H](C(=O)[C@@H](C)[C@@H](O)[C@H](C)[C@@H]1O[C@@H]([C@@H](CC)C(=O)O)CC[C@@H]1C)[C@H]1O[C@]2(C=C[C@H](n3cc(COC(C(F)(F)F)(C(F)(F)F)C(F)(F)F)nn3)[C@]3(CC[C@@](C)([C@H]4CC[C@](O)(CC)[C@H](C)O4)O3)O2)[C@H](C)C[C@@H]1C
